Laboratory results published in publication PMC7674646, “Structural and Functional Analyses of the Transcription Repressor DgoR From Escherichia coli Reveal a Divalent Metal-Containing D-Galactonate Binding Pocket” (Frontiers in Microbiology, 2020).
Values joined by “and” are separate entries in the source; they are usually repeats but may differ in a detail not shown here. Equal entries are not always repeated.

Experiments:
[1] = molecular target: EcoDgoR W181A (Escherichia coli, UniProt P31460, W181A); experiment: MST binding assay, EcoDgoR W181A mutant
Experimental: (§1) His-tagged DgoR and its derivatives were labeled with the NT-647-NHS dye using the Monolith NT^TM Protein Labeling Kit RED-NHS (NanoTemper Technologies) ([Magnez et al., 2017]; [Welsch et al., 2017]). Serially diluted unlabeled proteins and 100 nM of labeled DgoR or its derivatives were incubated for 15 min at room temperature in binding buffer (1.8 mM KH2PO4, 10 mM Na2HPO4, 137 mM NaCl, 2.7 mM KCl, and 0.05% Tween-20, pH 7.8) in a final volume of 20 μL. Subsequently, samples were loaded into NT.115 premium coated capillaries (NanoTemper Technologies). Binding experiments were performed using a Monolith NT.115 Pico apparatus (NanoTemper Technologies) with the following parameters: LED power 5 %, MST Power high. MST traces were analyzed between 4.00 and 5.00 s after turning on the IR-Laser. Measurements were carried out with D-galactonate. For each experiment, the unlabeled proteins were produced from independent preparations. Results were obtained with the MO Control software version 1.6. MO Affinity Analysis software version 2.3 was used to determine the fraction of the formed complex. Apparent dissociation constants (Kd) were calculated using nonlinear fitting assuming one specific binding site with the GraphPad Prism 7 software with the following formula
(§2) (whereBisMaxthemaximumtheoreticalspecificbinding,hereB=Max1).

[2] = molecular target: EcoDgoR H195A / dgo cis-acting element (Escherichia coli, UniProt P31460, H195A); experiment: EMSA of EcoDgoR H195A with dgo cis-acting element; assay type: biochemical; settings: 0.5 mM D-galactonate
Text: (§3) For expression of the recombinant DgoR mutants (i.e., R102A, D146A, H150A, Q173A, R179A, W181A, D184A, T191A, H195A, S221A, R224A, and R224E), the wild-type E. coli dgoR gene on the expression plasmid pET28a was mutated using the site-directed mutagenesis method. The dgo cis-acting element region of E. coli K12 was generated by PCR and subsequently inserted into the HincII site of pUC18. The obtained plasmid was used as the template for preparation of the Cy5-labeled probes using the universal primer pair of Cy5-labeled dgoRcis-acting_F and dgoRcis-acting_R. Cy5-labeled probe (100 ng) was incubated with different amounts of dgoR or its mutants at 25°C for 20 min in a buffer comprising of 25 mM Tris-HCl (pH 8.0), 50 mM KCl, 2.5 mM MgCl2, 5% glycerol, 1 mM dithiothreitol (DTT), and 100 μg/mL sonicated salmon sperm DNA (Sangon) (total volume 20 μl). The resulting DNA-protein complexes were subjected to electrophoresis on native PAGE gels at 100 V, 4°C for 2.5 h in a running buffer containing 25 mM Tris-HCl (pH 7.8) and 250 mM glycine. After electrophoresis, gels were directly scanned for fluorescent DNAs using an ImageQuantTM LAS 4000 system (GE Healthcare). For EMSAs in the presence or absence of D-galactonate or D-glucose, 0.5 mM D-galactonate or D-glucose was applied.

[3] = molecular target: EcoDgoR W181A / dgo cis-acting element (Escherichia coli, UniProt P31460, W181A); experiment: EMSA of EcoDgoR W181A with dgo cis-acting element; assay type: biochemical; settings: presence vs absence of 0.5 mM D-galactonate
Text: as §3

[4] = molecular target: EcoDgoR Q173A / dgo cis-acting element (Escherichia coli, UniProt P31460, Q173A); experiment: EMSA of EcoDgoR Q173A with dgo cis-acting element; assay type: biochemical; settings: Q173A 8 μM, 0.5 mM D-galactonate
Text: as §3

[5] = molecular target: EcoDgoR R179A / dgo cis-acting element (Escherichia coli, UniProt P31460, R179A); experiment: EMSA of EcoDgoR R179A with dgo cis-acting element; assay type: biochemical; settings: presence vs absence of 0.5 mM D-galactonate
Text: as §3

[6] = molecular target: EcoDgoR R224A / dgo cis-acting element (Escherichia coli, UniProt P31460, R224A); experiment: EMSA of EcoDgoR R224A with dgo cis-acting element; assay type: biochemical; settings: 0.5 mM D-galactonate
Text: as §3

[7] = molecular target: EcoDgoR H150A (Escherichia coli, UniProt P31460, H150A); experiment: MST binding assay, EcoDgoR H150A mutant
Experimental: as §1, §2

[8] = molecular target: EcoDgoR D146A / dgo cis-acting element (Escherichia coli, UniProt P31460, D146A); experiment: EMSA of EcoDgoR D146A with dgo cis-acting element; assay type: biochemical; settings: supplementation of D-galactonate
Text: as §3

[9] = molecular target: EcoDgoR / dgo cis-acting element (Escherichia coli, UniProt P31460); experiment: EMSA of WT EcoDgoR with dgo cis-acting element; assay type: biochemical; settings: for effect on stability of EcoDgoR/DNA complex (EMSA): EDTA-treated EcoDgoR, 0.5 mM sugar plus divalent metal cation (Zn2+, Ca2+ or Mg2+); for effect on EcoDgoR/DNA complex (EMSA): EcoDgoR pre-incubated with 5 mM EDTA, sugar alone (0.5 mM), no metal added; for effect on DNA bound by EcoDgoR (EMSA): WT EcoDgoR, 0.5 mM sugar
Text: as §3

[10] = molecular target: EcoDgoR R224A (Escherichia coli, UniProt P31460, R224A); experiment: MST binding assay, EcoDgoR R224A mutant
Experimental: as §1, §2

[11] = molecular target: WT-EcoDgoR (Escherichia coli, UniProt P31460); experiment: MST binding assay, D-galactonate to wild-type EcoDgoR
Experimental: as §1, §2

[12] = molecular target: EcoDgoR T191A (Escherichia coli, UniProt P31460, T191A); experiment: MST binding assay, EcoDgoR T191A mutant
Experimental: as §1, §2

[13] = molecular target: EcoDgoR T191A / dgo cis-acting element (Escherichia coli, UniProt P31460, T191A); experiment: EMSA of EcoDgoR T191A with dgo cis-acting element; assay type: biochemical; settings: T191A 8 μM, 0.5 mM D-galactonate
Text: as §3

[14] = molecular target: EcoDgoR R102A (Escherichia coli, UniProt P31460, R102A); experiment: MST binding assay, EcoDgoR R102A mutant
Experimental: as §1, §2

[15] = molecular target: EcoDgoR H150A / dgo cis-acting element (Escherichia coli, UniProt P31460, H150A); experiment: EMSA of EcoDgoR H150A with dgo cis-acting element; assay type: biochemical; settings: 0.5 mM D-galactonate
Text: as §3

[16] = molecular target: EcoDgoR D184A / dgo cis-acting element (Escherichia coli, UniProt P31460, D184A); experiment: EMSA of EcoDgoR D184A with dgo cis-acting element; assay type: biochemical; settings: D184A 8 μM, 0.5 mM D-galactonate
Text: as §3

[17] = molecular target: EcoDgoR R224E / dgo cis-acting element (Escherichia coli, UniProt P31460, R224E); experiment: EMSA of EcoDgoR R224E with dgo cis-acting element; assay type: biochemical; settings: 0.5 mM D-galactonate
Text: as §3

[18] = molecular target: EcoDgoR S221A / dgo cis-acting element (Escherichia coli, UniProt P31460, S221A); experiment: EMSA of EcoDgoR S221A with dgo cis-acting element; assay type: biochemical; settings: supplementation of D-galactonate
Text: as §3

[19] = molecular target: EcoDgoR R102A / dgo cis-acting element (Escherichia coli, UniProt P31460, R102A); experiment: EMSA of EcoDgoR R102A with dgo cis-acting element; assay type: biochemical; settings: R102A 8 μM, 0.5 mM D-galactonate
Text: as §3

EcoDgoR / dgo cis-acting element, sequence (P31460 whole entry): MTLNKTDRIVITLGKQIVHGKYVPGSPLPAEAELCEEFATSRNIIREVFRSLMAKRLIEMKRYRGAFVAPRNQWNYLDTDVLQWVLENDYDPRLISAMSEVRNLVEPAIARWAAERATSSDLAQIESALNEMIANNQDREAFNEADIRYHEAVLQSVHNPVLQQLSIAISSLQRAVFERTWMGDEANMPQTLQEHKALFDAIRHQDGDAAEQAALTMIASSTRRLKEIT
WT-EcoDgoR, sequence (P31460 whole entry): as above
EcoDgoR T191A, sequence (P31460 whole entry T191A): as the sequence (P31460 whole entry) above, with T191A counted along it
EcoDgoR R224A, sequence (P31460 whole entry R224A): as the sequence (P31460 whole entry) above, with R224A counted along it
EcoDgoR R102A, sequence (P31460 whole entry R102A): as the sequence (P31460 whole entry) above, with R102A counted along it
EcoDgoR W181A, sequence (P31460 whole entry W181A): as the sequence (P31460 whole entry) above, with W181A counted along it
EcoDgoR D146A / dgo cis-acting element, sequence (P31460 whole entry D146A): as the sequence (P31460 whole entry) above, with D146A counted along it
EcoDgoR T191A / dgo cis-acting element, sequence (P31460 whole entry T191A): as the sequence (P31460 whole entry) above, with T191A counted along it
EcoDgoR S221A / dgo cis-acting element, sequence (P31460 whole entry S221A): as the sequence (P31460 whole entry) above, with S221A counted along it
EcoDgoR H195A / dgo cis-acting element, sequence (P31460 whole entry H195A): as the sequence (P31460 whole entry) above, with H195A counted along it
EcoDgoR R224E / dgo cis-acting element, sequence (P31460 whole entry R224E): as the sequence (P31460 whole entry) above, with R224E counted along it
EcoDgoR H150A / dgo cis-acting element, sequence (P31460 whole entry H150A): as the sequence (P31460 whole entry) above, with H150A counted along it
EcoDgoR H150A, sequence (P31460 whole entry H150A): as the sequence (P31460 whole entry) above, with H150A counted along it
EcoDgoR R179A / dgo cis-acting element, sequence (P31460 whole entry R179A): as the sequence (P31460 whole entry) above, with R179A counted along it
EcoDgoR R224A / dgo cis-acting element, sequence (P31460 whole entry R224A): as the sequence (P31460 whole entry) above, with R224A counted along it
EcoDgoR D184A / dgo cis-acting element, sequence (P31460 whole entry D184A): as the sequence (P31460 whole entry) above, with D184A counted along it
EcoDgoR R102A / dgo cis-acting element, sequence (P31460 whole entry R102A): as the sequence (P31460 whole entry) above, with R102A counted along it
EcoDgoR Q173A / dgo cis-acting element, sequence (P31460 whole entry Q173A): as the sequence (P31460 whole entry) above, with Q173A counted along it
EcoDgoR W181A / dgo cis-acting element, sequence (P31460 whole entry W181A): as the sequence (P31460 whole entry) above, with W181A counted along it

## O=C(O)[C@H](O)[C@@H](O)[C@@H](O)[C@H](O)CO [D-galactonate]
[1]
  Kd: > 50 mM
[1]; W181A mutant
  interaction with D-galactonate (MST): did not interact
[2]
  effect on DNA binding of mutant (EMSA): remain inability to bind DNA
[3]
  effect on DNA binding of mutant (EMSA): no significant difference in DNA binding affinity
[4]
  effect on DNA binding of mutant (EMSA): restored their DNA binding ability to some extent
[5]
  effect on DNA binding of mutant (EMSA): no significant difference in DNA binding affinity
[6]
  effect on DNA binding of mutant (EMSA): remain inability to bind DNA
[7]
  Kd: 4.99 ± 1.02 mM
[8]
  effect on DNA binding of mutant (EMSA): slightly decreased their ability to bind DNA
[9]
  effect on stability of EcoDgoR/DNA complex (EMSA): decreased the stability of EcoDgoR/DNA complex
  effect on EcoDgoR/DNA complex (EMSA): didn’t disrupt the formation of stable protein/DNA complexes
  effect on DNA bound by EcoDgoR (EMSA): relieved DNA bound by EcoDgoR in a concentration-dependent manner
[10]
  Kd: > 50 mM
[10]; R224A mutant
  interaction with D-galactonate (MST): did not interact
[11]; WT EcoDgoR 100 nM, D-galactonate 305 nM to 10 mM
  Kd: ~0.22 mM and 0.22 mM
[11]; WT EcoDgoR after EDTA incubation
  Kd: 30 ± 20.3 mM
[12]
  Kd: > 50 mM
[12]; T191A mutant
  interaction with D-galactonate (MST): did not interact
[13]
  effect on DNA binding of mutant (EMSA): restored their DNA binding ability to some extent
[14]
  Kd: > 50 mM
[14]; R102A mutant
  interaction with D-galactonate (MST): did not interact
[15]
  effect on DNA binding of mutant (EMSA): remain inability to bind DNA
[16]
  effect on DNA binding of mutant (EMSA): restored their DNA binding ability to some extent
[17]
  effect on DNA binding of mutant (EMSA): remain inability to bind DNA
[18]
  effect on DNA binding of mutant (EMSA): slightly decreased their ability to bind DNA
[19]
  effect on DNA binding of mutant (EMSA): restored their DNA binding ability to some extent

## OC[C@H]1OC(O)[C@H](O)[C@@H](O)[C@@H]1O (stereo partly drawn) [D-glucose]
[9]
  effect on stability of EcoDgoR/DNA complex (EMSA): not affected significantly
  effect on EcoDgoR/DNA complex (EMSA): didn’t disrupt the formation of stable protein/DNA complexes
  effect on DNA bound by EcoDgoR (EMSA): did not display such effect
